In the RepoRT retention time repository (doi:10.1038/s41586-021-03707-9):

Columns and labels:
[1] = Waters ACQUITY UPLC BEH C18, 100 × 2.1 mm, 1.7 µm, 40 °C, 0.28 mL/min, estimated dead time 0.63 min; A: water + 6.5 mM ammonium hydroxide; B: methanol + 6.5 mM ammonium hydroxide; gradient (min/%B) 0/0.5 4/70 4.5/98 5.4/98; conditions: stereoisomer not certain
[2] = RP, Waters ACQUITY UPLC HSS C18, 100 × 2.1 mm, 1.7 µm, 40 °C, 0.35 mL/min, estimated dead time 0.63 min; A: water + 0.1% formic acid; B: methanol + 0.1% formic acid; gradient (min/%B) 0/0.5 4/70 4.5/98 5.4/98; conditions: stereoisomer not certain

SMILES	LC retention time [1]	LC retention time [2]
O=C1CCCc2[nH]ccc21	3.04 min	2.95 min
O=C(O)c1cc(=O)c2ccccc2[nH]1	2.57 min	3.18 min
COc1cc(C(O)CN)ccc1O (stereo unspecified)	1.88 min	1.16 min
O=C(O)c1ccncc1	0.867 min	0.877 min
CCCCCCSCC(NC(=O)CCC(N)C(=O)O)C(=O)NCC(=O)O (stereo unspecified)	4.57 min	4.88 min
CCC(C)(O)C(=O)O (stereo unspecified)	0.857 min	2.87 min
NC(=O)Cc1c[nH]c2ccccc12	3.63 min	3.52 min
COc1cc(C(=O)O)ccc1O	0.869 min	3.33 min
NCCc1c[nH]c2ccccc12	3.67 min	2.82 min
O=C(O)CNC(=O)C=Cc1ccccc1	3.49 min	4.18 min
O=C(O)c1ccc2ccccc2n1	3.07 min	3.21 min
Nc1c(O)cccc1C(=O)O	0.924 min	2.57 min
CCOC(=O)c1ccc(N)cc1	4.61 min	4.4 min
Cc1ncc(CO)c(CO)c1O	1.94 min	1.54 min
CC1NC(=O)NC1CCCCCC(=O)O (stereo unspecified)	2.67 min	3.88 min
O=C(O)CCCCc1ccccc1	4.37 min	5 min
NC(=O)NCCCCC(N)C(=O)O (stereo unspecified)	0.853 min	0.857 min
O=C(O)C(O)c1ccc(O)cc1 (stereo unspecified)	0.823 min	3.64 min
O=C(O)C(O)Cc1c[nH]c2ccccc12 (stereo unspecified)	2.59 min	3.93 min
O=C(O)CCCc1c[nH]c2ccccc12	3.66 min	4.92 min
OCc1ccccc1OC1OC(CO)C(O)C(O)C1O (stereo unspecified)	2.89 min	2.82 min
O=C(O)CCCCCCCCCO	3.96 min	5.06 min
Nc1ncnc2c1ncn2C1OC2COP(=O)(O)OC2C1O (stereo unspecified)	2.32 min	1.95 min

SMILES	LC retention time [1]	LC retention time [2]
O=C(O)CNC(=O)Cc1ccccc1	2.69 min	3.49 min
CSc1ncnc2nc[nH]c12	3.28 min	3.43 min
Nc1ccn(C2OC(CO)C3OP(=O)(O)OC32)c(=O)n1 (stereo unspecified)	0.926 min	0.912 min
O=C(O)c1ccnc2ccccc12	2.09 min	1.91 min
O=C1OC(CO)C(O)C(O)C1O (stereo unspecified)	0.906 min	0.795 min
Cc1ncc(CO)c(C=O)c1O	1.77 min	0.85 min
Nc1ccn(C2OC(CO)C(O)C2O)c(=O)n1 (stereo unspecified)	1.49 min	1.1 min
Oc1ccc(C=Cc2cc(O)cc(O)c2)cc1	4.23 min	4.15 min
O=C(O)C(O)Cc1ccc(O)cc1 (stereo unspecified)	1.51 min	2.87 min
O=c1cc[nH]c(=O)[nH]1	1.19 min	1.18 min
CC(=O)NCC(=O)O	0.78 min	1.13 min
O=C(O)CNC(=O)CCc1ccccc1	3.32 min	2.34 min
[2H]c1[nH]c2c([2H])c([2H])c([2H])c([2H])c2c1CC(=O)O	2.49 min	4.22 min
O=C(O)c1cc(=O)c2cccc(O)c2[nH]1	1.67 min	3.04 min
NC(=O)NC1NC(=O)NC1=O (stereo unspecified)	0.799 min	0.855 min
O=c1ccn(C2CC(O)C(CO)O2)c(=O)[nH]1 (stereo unspecified)	1.87 min	1.85 min
COc1ccc(O)c(C(=O)O)c1	2.84 min	4.48 min
COc1ccc(OC)c(C(O)C(C)N)c1 (stereo unspecified)	3.99 min	3.14 min
CCCOC(=O)c1ccc(O)cc1	5.27 min	5.25 min
O=C(O)Cc1c[nH]c2ccccc12	2.51 min	4.21 min
CC(=O)NC(Cc1ccccc1)C(=O)O (stereo unspecified)	2.99 min	3.99 min
Nc1nc2ncc(CNc3ccc(C(=O)NC(CCC(=O)O)C(=O)O)cc3)nc2c(=O)[nH]1 (stereo unspecified)	0.847 min	3.01 min
CNC(=C[N+](=O)[O-])NCCSCc1ccc(CN(C)C)o1	4.28 min	2.32 min

SMILES	LC retention time [1]	LC retention time [2]
CNCCc1c[nH]c2ccccc12	3.84 min	2.87 min
Nc1ncnc2c1ncn2C1OC(CO)C(O)C1O (stereo unspecified)	2.48 min	1.86 min
O=C(NO)c1ccccc1O	2.15 min	3.04 min
CCC1(C)CC(=O)NC1=O (stereo unspecified)	3.44 min	3.39 min
O=C(NC(O)C(=O)O)c1ccccc1 (stereo unspecified)	2.02 min	2.8 min
COc1cc(C(=O)O)cc(OC)c1O	1.59 min	3.43 min
NCCCCCCCC(=O)O	1.95 min	2.59 min
Cc1ccc(O)c(O)c1	3.87 min	3.49 min
Nc1cc(O)cc(C(=O)O)c1	0.812 min	1.32 min
NC(N)=NCCCC(=O)O	0.91 min	1.11 min
O=c1ccc2cc(OC3OC(CO)C(O)C(O)C3O)c(O)cc2o1 (stereo unspecified)	2.17 min	2.78 min
O=C(O)c1ccoc1	0.886 min	3.35 min
CN(CC(=O)O)C(=N)N	0.86 min	0.82 min
CC(C(=O)O)c1cccc(C(=O)c2ccccc2)c1 (stereo unspecified)	4.61 min	5.37 min
CC=C(C)C(=O)O	1.61 min	
COC1OC(CO)C(O)C(O)C1O (stereo unspecified)	0.979 min	
CN=C(NC#N)NCCSCc1nc[nH]c1C	3.63 min	
O=C(O)CCc1ccc(O)cc1	2.5 min	
Nc1ncnc2c1ncn2C1OC(COP(=O)(O)OP(=O)(O)OCC2OC(O)C(O)C2O)C(O)C1O (stereo unspecified)	0.924 min	
NCC(N)C(=O)O (stereo unspecified)	0.768 min	
C[N+](C)(C)CC(=O)[O-]	0.809 min	
CNCC(=O)O	0.778 min	
Oc1cccc2cccnc12	4.19 min	

SMILES	LC retention time [1]	LC retention time [2]
O=C(O)C(=O)Cc1c[nH]c2ccccc12	3 min	
O=C(O)C1CCC(O)CC1 (stereo unspecified)	0.776 min	
CC(=O)Oc1cccc(O)c1	3.06 min	
O=C(O)CCCCCCCCCCCO	4.86 min	
O=C(C=Cc1ccc(O)c(O)c1)OC(Cc1ccc(O)c(O)c1)C(=O)O (stereo unspecified)	3.14 min	
NC(Cc1ccccc1)C(=O)O (stereo unspecified)	2.37 min	
CC(C)(COP(=O)(O)OP(=O)(O)OCC1OC(n2cnc3c(N)ncnc32)C(O)C1OP(=O)(O)O)C(O)C(=O)NCCC(=O)NCCS (stereo unspecified)	0.853 min	
CCCC(=O)Nc1ccc(OCC(O)CNC(C)C)c(C(C)=O)c1 (stereo unspecified)	4.82 min	
O=C(O)CCCCC1CCSS1 (stereo unspecified)	3.95 min	
O=C(O)Cc1ccccc1O	2.46 min	
O=C(CCc1ccc(O)cc1)c1c(O)cc(O)cc1OC1OC(CO)C(O)C(O)C1O (stereo unspecified)	3.5 min	
O=CCc1c[nH]c2ccccc12	4.4 min	
CCC(CO)C(=O)O (stereo unspecified)	0.857 min	
NC(=O)CCC(N)C(=O)O (stereo unspecified)	0.764 min	
CC(=O)NC(CCC(N)=O)C(=O)O (stereo unspecified)	0.835 min	
CC(C)(O)CC(=O)O	1.2 min	
NC1C(O)OC(CO)C(O)C1O (stereo unspecified)	0.802 min	
Cc1ccc(O)c([N+](=O)[O-])c1	4.33 min	
NC(=O)c1ncn(C2OC(CO)C(O)C2O)n1 (stereo unspecified)	0.858 min	
Cc1cc(C(=O)O)ccc1O	3.54 min	
CCCCC(=O)N(Cc1ccc(-c2ccccc2-c2nn[nH]n2)cc1)C(C(=O)O)C(C)C (stereo unspecified)	4.48 min	
O=Cc1cccc(O)c1	3.55 min	
COc1ccc2[nH]cc(CCN)c2c1	3.64 min	

SMILES	LC retention time [1]	LC retention time [2]
OCC1OC(OCC2OC(O)(CO)C(O)C2O)C(O)C(O)C1O (stereo unspecified)	0.892 min	
OCCNCCO	0.945 min	
COc1cc(C=O)ccc1O	2.51 min	
CC(C)CCC(=O)O	3.06 min	
CC(C)Cc1ccc(C(C)C(=O)O)cc1 (stereo unspecified)	5.27 min	
CC(C)(CO)C(O)C(=O)NCCC(=O)O (stereo unspecified)	1.7 min	
O=C(O)CCc1cccc(O)c1	2.24 min	
O=C(O)CNC(=O)c1ccccc1O	2.48 min	
O=C(O)c1cccc(O)c1O	1.56 min	
O=S(=O)(O)c1cccc2cccc(Nc3ccccc3)c12	5.12 min	
OCC1OC(Oc2ccc(O)cc2)C(O)C(O)C1O (stereo unspecified)	1.81 min	
NC(Cc1cnc[nH]1)C(=O)O (stereo unspecified)	0.849 min	
CCCCCCC(=O)O	4.06 min	
Cn1cncc1CC(N)C(=O)O (stereo unspecified)	0.969 min	
CC=CC(=O)O	0.869 min	
Nc1ncnc2c1ncn2C1OC(COP(=O)(O)OP(=O)(O)OC2OC(CO)C(O)C(O)C2O)C(O)C1O (stereo unspecified)	0.917 min	
O=c1[nH]c(=O)c2[nH]c(=O)[nH]c2[nH]1	0.828 min	
CNC(=C[N+](=O)[O-])NCCSCc1csc(CN(C)C)n1	3.86 min	
COc1cc(CC(=O)O)ccc1OS(=O)(=O)O	0.848 min	
